Where two headings read alike, the source gives them in different places.
Tested on: hiPSC-CMs (iCell-Cardiomyocytes^2)
How it was run: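 Monolayers of hiPSC-CMs on fibronectin-coated MEA plates, 50 K/well, kept at 37°C, 5% CO2; compounds added in 0.1% final DMSO after 5-min baseline. Field potential and impedance parameters expressed as mean ± SD percent change from baseline; arrhythmic events noted; cytotoxicity fluorescence normalized to DMSO, Kruskal-Wallis.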

BR (beating rate), % change from baseline (1 µM, 2h): 4±4%
FPD (field-potential duration), % change from baseline (1 µM, 2h): 0±2.5%
FPDc (field-potential duration corrected by beat-rate), % change from baseline (1 µM, 2h): 0.8±1.8%
BR (beating rate), % change from baseline (1 µM, 24h): 1±5%
FPD (field-potential duration), % change from baseline (1 µM, 24h): 5±5.9%
FPDc (field-potential duration corrected by beat-rate), % change from baseline (1 µM, 24h): 5.1±4.4%
BR (beating rate), % change from baseline (1 µM, 48h): -7±4%
FPD (field-potential duration), % change from baseline (1 µM, 48h): 11.5±3.8%
FPDc (field-potential duration corrected by beat-rate), % change from baseline (1 µM, 48h): 8.8±2.5%
BR (beating rate), % change from baseline (1 µM, 72h): -10±1%
FPD (field-potential duration), % change from baseline (1 µM, 72h): 16±2.7%
FPDc (field-potential duration corrected by beat-rate), % change from baseline (1 µM, 72h): 11.9±2.1%
BR (beating rate), % change from baseline (1 µM, 96h): -15±4%
FPD (field-potential duration), % change from baseline (1 µM, 96h): 22±4.6%
FPDc (field-potential duration corrected by beat-rate), % change from baseline (1 µM, 96h): 15.1±3%
BR (beating rate), % change from baseline (3 µM, 72h): -9±1%
FPD (field-potential duration), % change from baseline (3 µM, 72h): 12±0.8%
FPDc (field-potential duration corrected by beat-rate), % change from baseline (3 µM, 72h): 8.6±0.6%
BR (beating rate), % change from baseline (3 µM, 96h): -18±2%
FPD (field-potential duration), % change from baseline (3 µM, 96h): 20.9±1.6%
FPDc (field-potential duration corrected by beat-rate), % change from baseline (3 µM, 96h): 13.5±1.6%
BR (beating rate), % change from baseline (3 µM, 2h): 2±2%
FPD (field-potential duration), % change from baseline (3 µM, 2h): 0.3±1.9%
FPDc (field-potential duration corrected by beat-rate), % change from baseline (3 µM, 2h): 1.1±1.6%
BR (beating rate), % change from baseline (3 µM, 24h): 1±3%
FPD (field-potential duration), % change from baseline (3 µM, 24h): 4.3±0.8%
FPDc (field-potential duration corrected by beat-rate), % change from baseline (3 µM, 24h): 4.6±1.6%
BR (beating rate), % change from baseline (3 µM, 48h): -7±2%
FPD (field-potential duration), % change from baseline (3 µM, 48h): 10.9±2.8%
FPDc (field-potential duration corrected by beat-rate), % change from baseline (3 µM, 48h): 8.2±1.8%
BR (beating rate), % change from baseline (10 µM, 2h): 2±2%
FPD (field-potential duration), % change from baseline (10 µM, 2h): 0.3±1.7%
FPDc (field-potential duration corrected by beat-rate), % change from baseline (10 µM, 2h): 1±1.6%
BR (beating rate), % change from baseline (10 µM, 24h): 1±3%
FPD (field-potential duration), % change from baseline (10 µM, 24h): 5.3±3.7%
FPDc (field-potential duration corrected by beat-rate), % change from baseline (10 µM, 24h): 5.7±2.8%
BR (beating rate), % change from baseline (10 µM, 48h): -7±3%
FPD (field-potential duration), % change from baseline (10 µM, 48h): 13.1±5.3%
FPDc (field-potential duration corrected by beat-rate), % change from baseline (10 µM, 48h): 10.3±4.5%
BR (beating rate), % change from baseline (10 µM, 72h): -10±1%
FPD (field-potential duration), % change from baseline (10 µM, 72h): 14.8±5.3%
FPDc (field-potential duration corrected by beat-rate), % change from baseline (10 µM, 72h): 11.2±4.9%
BR (beating rate), % change from baseline (10 µM, 96h): -17±1%
FPD (field-potential duration), % change from baseline (10 µM, 96h): 23.4±6.5%
FPDc (field-potential duration corrected by beat-rate), % change from baseline (10 µM, 96h): 16±5.7%
BR (beating rate), % change from baseline (30 µM, 2h): 2±3%
FPD (field-potential duration), % change from baseline (30 µM, 2h): 3.4±1.3%
FPDc (field-potential duration corrected by beat-rate), % change from baseline (30 µM, 2h): 4±1.3%
BR (beating rate), % change from baseline (30 µM, 24h): 1±3%
FPD (field-potential duration), % change from baseline (30 µM, 24h): 7.4±4.1%
FPDc (field-potential duration corrected by beat-rate), % change from baseline (30 µM, 24h): 7.7±2.9%
BR (beating rate), % change from baseline (30 µM, 48h): -7±1%
FPD (field-potential duration), % change from baseline (30 µM, 48h): 13.9±3.1%
FPDc (field-potential duration corrected by beat-rate), % change from baseline (30 µM, 48h): 11.4±2.7%
BR (beating rate), % change from baseline (30 µM, 72h): -9±2%
FPD (field-potential duration), % change from baseline (30 µM, 72h): 15.6±2%
FPDc (field-potential duration corrected by beat-rate), % change from baseline (30 µM, 72h): 12.1±2.1%
BR (beating rate), % change from baseline (30 µM, 96h): -16±2%
FPD (field-potential duration), % change from baseline (30 µM, 96h): 23.3±2.4%
FPDc (field-potential duration corrected by beat-rate), % change from baseline (30 µM, 96h): 16±2.1%
Structure (SMILES): C[C@H](CS)C(=O)N1CCC[C@H]1C(=O)O [Captopril]
cessation of beating, flat T-wave or arrhythmic-like events (all concentrations tested, up to 96 h): no cessation of beating, flat T-wave or arrhythmic-like events were detected
